Assay results published in patent publication US20210063414A1, “METHODS FOR PREVENTING AND/OR TREATING BONE LOSS CONDITIONS BY MODULATING IRISIN” (Dana-Farber Cancer Institute, Inc., priority 2018, published 2021).
Entries after “also recorded” stand apart in the source; their conditions may differ. Where a name gives a salt, the structure may show the parent alone.

Legend:
[1] = system: sclerostin mRNA in MLO-Y4 cells; assay: Sclerostin mRNA in MLO-Y4 cells, qRT-PCR; format: cell-based, mouse; details: MLO-Y4, inhibitor pre-treatment 10 minutes, irisin 16 hours
Description: Cells were stained with Hoechst 33342 and Eth-D1, and analyzed to determine the percentage of cell death. *: p<0.05, ***: p<0.001 vs 0.3 mM H2O2 treated condition. […] MLO-Y4 cells were seeded and incubated until 60% cell density. The cells were incubated with Freestyle293 medium for 4 hours and were treated with indicated concentrations of irisin for 16 hours. Sclerostin mRNA level was analyzed by qRT-PCR. Cyclophilin was used as a control house-keeping gene.
MLO-Y4 cells were incubated in serum free medium for 3 hours followed by treatment of indicated concentrations of irisin for indicated time (FIG. 6A), or followed by treatment of 0 or 10 nM irisin in the presence of indicated integrin inhibitors or their control peptide for 16 hours (FIG. 6B). Sclerostin mRNA level was analyzed by qPCR.
Certain materials and methods were used to generate the results described herein. For example, the data shown in FIG. 1A resulted from MLO-Y4 (an osteocyte-like cell line) cells treated with the indicated concentration of irisin and hydrogen peroxide for 4 hours. Cells were stained with Hoechst 33342 (ThermoFisher Scientific, catalog number H3570) and Eth-D1 (ThermoFisher Scientific, catalog number E1169) and analyzed to determine the percentage of cell death using ImageJ. The data shown in FIG. 2D resulted from MLO-Y4 incubated in serum free medium (FreeStyle™ 293 expression medium, ThermoFisher Scientific, catalog number 12338018) for 4 hours followed by treatment of indicated concentrations of irisin for 10 minutes. Cells were lysed to detect the indicated protein level using immunoblot analysis (Cell Signaling Technology, catalog numbers 3283S, 3285S, 8467S, 3553S, 9198S, and 9104S; Abcam, catalog number ab49900-100ul). The data shown in FIG. 3 resulted from 3T3-F442A cells incubated in serum free medium for 4 hours followed by treatment of indicated concentrations of irisin for 10 minutes. Cells were lysed by RIPA buffer to detect the indicated protein level using immunoblot analysis. The data shown in FIG. 4 were generated from 100 nM flag-tagged irisin (Enzo life sciences, catalog number ADI-908-307-3010) incubated with 5 nM of the indicated 6 his-tag integrins (R & D Systems Inc., catalog numbers 7064-AB-025, 5668-A4-050, 5438-A9-050, 6357-AB-050, and 6579-AV-025) in the presence of RGDS peptide (R & D Systems Inc., catalog number 3498/10) or its control peptide (Enzo Life Sciences, catalog Number BML-P701-0005) followed by immunoprecipitation using 6 his-tag beads (ThermoFisher Scientific, catalog number R901-01). Co-precipitated irisin was analyzed by immunoblot analysis against flag tag (Sigma Aldrich, catalog number A8592). The data shown in FIGS. 5A and 5B were generated from MLO-Y4 cells treated and analyzed as in the experiments used to generate the data shown in FIG. 2D, except that pre-treatment of 100 nM RGDS (FIG. 5A) or echistatin (R & D Systems Inc., catalog number 3202/100U) (FIG. 5B) for 10 minutes was performed before irisin treatment. The data shown in FIGS. 6A and 6B were generated from MLO-Y4 cells incubated in serum free medium for 3 hours followed by treatment of indicated time of 10 nM irisin for 16 hours. RNAs were extracted from the cells and the sclerostin mRNA level was analyzed by qPCR (FIG. 6A) or treated and analyzed as in (FIG. 6A), except that pre-treatment of 10 μM RGDS, RGDyK (Selleck, catalog number S7844), or echistatin was performed for 10 minutes before irisin treatment. […] Sclerostin mRNA level was analyzed by qPCR (FIG. 7A). […]

MLO-Y4 cells = assay: Integrin-like signaling (pFAK, pZyxin, pAKT, pCREB) in MLO-Y4 cells, immunoblot; format: cell-based; details: for effect of integrin inhibitor on irisin-induced signaling (phosphorylation of FAK, Zyxin, CREB): MLO-Y4, inhibitor pre-treatment 10 minutes before irisin
Description: Integrin heterodimer binds to its ligand. The interaction results in phosphorylation of FAK and Zyxin, followed by phosphorylation of AKT (at T308) and CREB. PM is plasma membrane. FIG. 2C and FIG. 2D show the immunoblots. MLO-Y4 cells were seeded and incubated until 60% cell density. The cells were incubated with serum free medium (FreeStyle™ 293 medium) for 4 hours and were treated for indicated time with 10 nM norepinephrine or irisin (FIG. 2C) or indicated concentrations of irisin for 10 minutes (FIG. 2D). Cells were lysed to detect the indicated protein level using immunoblot analysis.
Certain materials and methods were used to generate the results described herein. For example, the data shown in FIG. 1A resulted from MLO-Y4 (an osteocyte-like cell line) cells treated with the indicated concentration of irisin and hydrogen peroxide for 4 hours. Cells were stained with Hoechst 33342 (ThermoFisher Scientific, catalog number H3570) and Eth-D1 (ThermoFisher Scientific, catalog number E1169) and analyzed to determine the percentage of cell death using ImageJ. The data shown in FIG. 2D resulted from MLO-Y4 incubated in serum free medium (FreeStyle™ 293 expression medium, ThermoFisher Scientific, catalog number 12338018) for 4 hours followed by treatment of indicated concentrations of irisin for 10 minutes. Cells were lysed to detect the indicated protein level using immunoblot analysis (Cell Signaling Technology, catalog numbers 3283S, 3285S, 8467S, 3553S, 9198S, and 9104S; Abcam, catalog number ab49900-100ul). The data shown in FIG. 3 resulted from 3T3-F442A cells incubated in serum free medium for 4 hours followed by treatment of indicated concentrations of irisin for 10 minutes. Cells were lysed by RIPA buffer to detect the indicated protein level using immunoblot analysis. The data shown in FIG. 4 were generated from 100 nM flag-tagged irisin (Enzo life sciences, catalog number ADI-908-307-3010) incubated with 5 nM of the indicated 6 his-tag integrins (R & D Systems Inc., catalog numbers 7064-AB-025, 5668-A4-050, 5438-A9-050, 6357-AB-050, and 6579-AV-025) in the presence of RGDS peptide (R & D Systems Inc., catalog number 3498/10) or its control peptide (Enzo Life Sciences, catalog Number BML-P701-0005) followed by immunoprecipitation using 6 his-tag beads (ThermoFisher Scientific, catalog number R901-01). Co-precipitated irisin was analyzed by immunoblot analysis against flag tag (Sigma Aldrich, catalog number A8592). The data shown in FIGS. 5A and 5B were generated from MLO-Y4 cells treated and analyzed as in the experiments used to generate the data shown in FIG. 2D, except that pre-treatment of 100 nM RGDS (FIG. 5A) or echistatin (R & D Systems Inc., catalog number 3202/100U) (FIG. 5B) for 10 minutes was performed before irisin treatment. The data shown in FIGS. 6A and 6B were generated from MLO-Y4 cells incubated in serum free medium for 3 hours followed by treatment of indicated time of 10 nM irisin for 16 hours. RNAs were extracted from the cells and the sclerostin mRNA level was analyzed by qPCR (FIG. 6A) or treated and analyzed as in (FIG. 6A), except that pre-treatment of 10 μM RGDS, RGDyK (Selleck, catalog number S7844), or echistatin was performed for 10 minutes before irisin treatment. The data shown in FIGS. 7A and 7B were generated from 8 week-old mice injected with the indicated dose of irisin for 6 days. Tibias were collected and treated with collagenase to obtain mRNA from the osteocyte-enriched bones. Sclerostin mRNA level was analyzed by qPCR (FIG. 7A). Serum was collected to analyze the sclerostin protein level using ELISA kit (R&D Systems Inc., catalog number MSST00) (FIG. 7B). The data shown in FIG. 8 were generated from 8 week-old mice injected with the indicated dose of irisin for 6 days. Epididymal fats were collected, RNAs were extracted from the tissues, and mRNA levels of the indicated genes were analyzed by qPCR. […]

sclerostin = assay: Irisin injection in mice: sclerostin mRNA in osteocyte-enriched bones and plasma sclerostin protein (ELISA); format: in vivo; details: co-injection of 1 mg/kg inhibitor with irisin
Description: 8 weeks old mice were injected daily with indicated dose of irisin for 6 days. […] were collected and treated with collagenase to yield osteocyte-enriched bones. Sclerostin mRNA level from osteocyte-enriched tibia was analyzed by qPCR (FIG. 7A). Cyclophilin was used as a house-keeping gene. Plasma was collected to analyze the circulating sclerostin protein level by ELISA assay (FIG. 7B). Data are represented as mean±SEM. For FIG. 7A and FIG. 7B, n=5 animals/group. * indicates p<0.05, and *** indicates p<0.001.
Certain materials and methods were used to generate the results described herein. For example, the data shown in FIG. 1A resulted from MLO-Y4 (an osteocyte-like cell line) cells treated with the indicated concentration of irisin and hydrogen peroxide for 4 hours. Cells were stained with Hoechst 33342 (ThermoFisher Scientific, catalog number H3570) and Eth-D1 (ThermoFisher Scientific, catalog number E1169) and analyzed to determine the percentage of cell death using ImageJ. […] Co-precipitated irisin was analyzed by immunoblot analysis against flag tag (Sigma Aldrich, catalog number A8592). The data shown in FIGS. 5A and 5B were generated from MLO-Y4 cells treated and analyzed as in the experiments used to generate the data shown in FIG. 2D, except that pre-treatment of 100 nM RGDS (FIG. 5A) or echistatin (R & D Systems Inc., catalog number 3202/100U) (FIG. 5B) for 10 minutes was performed before irisin treatment. […] RNAs were extracted from the cells and the sclerostin mRNA level was analyzed by qPCR (FIG. 6A) or treated and analyzed as in (FIG. 6A), except that pre-treatment of 10 μM RGDS, RGDyK (Selleck, catalog number S7844), or echistatin was performed for 10 minutes before irisin treatment. […] Sclerostin mRNA level was analyzed by qPCR (FIG. 7A). […] Epididymal fats were collected, RNAs were extracted from the tissues, and mRNA levels of the indicated genes were analyzed by qPCR. […]

| Compound | effect of integrin inhibitor on irisin-induced sclerostin mRNA [1] | effect of integrin inhibitor on irisin-induced signaling (phosphorylation of FAK, Zyxin, CREB) (MLO-Y4 cells) | effect of integrin inhibitor on irisin-induced signaling (phosphorylation of FAK, Zyxin, CREB) (MLO-Y4 cells; listed as Echistatin) | effect on irisin-induced gene expression of sclerostin in osteocyte-enriched bones (sclerostin) | phosphorylation of CREB (positive control) (MLO-Y4 cells; MLO-Y4, 10 nM) |
| --- | --- | --- | --- | --- | --- |
| echistatin: natural integrin inhibitor isolated from viper venom, affects primarily integrin αV complexes (QCESGPCCRNCKFLKEGTICKRARGDDMDDYCNGKTCDCPRNPHKGPAT) | sensitive; also recorded: prevented sclerostin induction | most irisin signaling in osteocytes was inhibited | effectively prevented irisin signaling | – | – |
| CNc1cccc(CCOc2ccc3c(c2)CN(CC(F)(F)F)C(=O)[C@H](CC(=O)O)C3)n1 [SB273005, reference compound] | – | block irisin-induced signaling | – | significantly prevented | – |
| NC[C@H](O)c1ccc(O)c(O)c1 [norepinephrine, L-(−)-Norephinephrine (+)-bitartrate salt monohyrdate] | – | – | – | – | also did this |
